Measurements as given in ChEMBL document CHEMBL1138896, “2,3,7-Trisubstituted pyrazolo[1,5-d][1,2,4]triazines: functionally selective GABAA alpha3-subtype agonists” (Bioorg Med Chem Lett, 2006).

Legend:
[1] = biological target: T1, GABA-A receptor; alpha-3/beta-3/gamma-2 (Homo sapiens, UniProt P18507+P28472+P34903); experiment: Inhibition of [3H]Ro15-1788 binding to human recombinant GABA-Aalpha3 plus beta-3-gamma-2 receptor expressed in L(tk-) cells; type: cell-based
T1 sequence (P18507 whole entry): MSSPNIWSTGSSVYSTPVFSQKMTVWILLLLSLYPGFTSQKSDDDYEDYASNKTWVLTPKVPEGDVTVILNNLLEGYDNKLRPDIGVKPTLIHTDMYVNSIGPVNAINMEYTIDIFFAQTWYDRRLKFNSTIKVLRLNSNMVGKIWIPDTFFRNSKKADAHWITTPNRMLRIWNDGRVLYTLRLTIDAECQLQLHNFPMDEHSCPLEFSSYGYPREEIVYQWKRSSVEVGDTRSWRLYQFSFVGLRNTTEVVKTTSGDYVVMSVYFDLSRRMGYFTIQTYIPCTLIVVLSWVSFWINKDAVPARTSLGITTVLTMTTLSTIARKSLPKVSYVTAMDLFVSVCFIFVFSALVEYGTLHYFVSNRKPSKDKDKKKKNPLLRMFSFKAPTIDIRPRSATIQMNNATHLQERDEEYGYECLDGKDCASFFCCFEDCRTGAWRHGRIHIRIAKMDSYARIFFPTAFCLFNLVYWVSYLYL
T1 sequence (P28472 whole entry): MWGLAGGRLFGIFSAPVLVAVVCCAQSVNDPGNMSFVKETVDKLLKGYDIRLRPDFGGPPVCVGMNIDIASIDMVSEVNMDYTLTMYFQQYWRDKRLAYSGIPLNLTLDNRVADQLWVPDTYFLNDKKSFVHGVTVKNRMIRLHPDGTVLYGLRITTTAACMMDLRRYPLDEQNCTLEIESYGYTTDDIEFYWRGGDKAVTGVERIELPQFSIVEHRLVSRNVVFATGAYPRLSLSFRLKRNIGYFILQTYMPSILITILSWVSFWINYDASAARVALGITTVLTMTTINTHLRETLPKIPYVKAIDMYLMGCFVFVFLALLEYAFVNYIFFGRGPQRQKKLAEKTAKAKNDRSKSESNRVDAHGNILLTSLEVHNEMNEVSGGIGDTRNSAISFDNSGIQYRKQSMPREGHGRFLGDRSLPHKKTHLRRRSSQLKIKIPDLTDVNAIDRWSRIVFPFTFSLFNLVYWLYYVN
T1 sequence (P34903 whole entry): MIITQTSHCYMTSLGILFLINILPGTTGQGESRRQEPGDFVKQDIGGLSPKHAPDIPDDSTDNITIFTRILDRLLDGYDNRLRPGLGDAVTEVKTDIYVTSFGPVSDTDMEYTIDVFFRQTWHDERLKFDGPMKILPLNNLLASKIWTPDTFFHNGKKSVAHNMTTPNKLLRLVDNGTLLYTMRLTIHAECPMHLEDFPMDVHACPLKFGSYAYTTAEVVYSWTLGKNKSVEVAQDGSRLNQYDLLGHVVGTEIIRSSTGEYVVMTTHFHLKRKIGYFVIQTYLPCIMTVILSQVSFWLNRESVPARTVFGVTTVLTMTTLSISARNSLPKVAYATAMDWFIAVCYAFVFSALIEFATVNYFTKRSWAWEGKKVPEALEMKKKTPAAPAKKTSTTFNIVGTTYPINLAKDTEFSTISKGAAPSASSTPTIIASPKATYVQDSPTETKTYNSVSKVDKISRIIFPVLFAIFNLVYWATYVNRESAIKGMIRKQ

[2] = biological target: GABA-A receptor; alpha-1/beta-3/gamma-2 (Homo sapiens) (UniProt P14867+P18507+P28472); experiment: Efficacy against human recombinant GABA-Aalpha1 plus beta-3-gamma-2 receptor expressed in L(tk-) cells assessed as modulation of chloride ion by whole cell patch clamp method relative to chlorodiazepoxide; type: functional, cell-based
[3] = biological target: T2, GABA-A receptor; alpha-1/beta-3/gamma-2 (Homo sapiens, UniProt P14867+P18507+P28472); experiment: Inhibition of [3H]Ro15-1788 binding to human recombinant GABA-Aalpha1 plus beta-3-gamma-2 receptor expressed in L(tk-) cells; type: cell-based
T2 sequence (P14867 whole entry): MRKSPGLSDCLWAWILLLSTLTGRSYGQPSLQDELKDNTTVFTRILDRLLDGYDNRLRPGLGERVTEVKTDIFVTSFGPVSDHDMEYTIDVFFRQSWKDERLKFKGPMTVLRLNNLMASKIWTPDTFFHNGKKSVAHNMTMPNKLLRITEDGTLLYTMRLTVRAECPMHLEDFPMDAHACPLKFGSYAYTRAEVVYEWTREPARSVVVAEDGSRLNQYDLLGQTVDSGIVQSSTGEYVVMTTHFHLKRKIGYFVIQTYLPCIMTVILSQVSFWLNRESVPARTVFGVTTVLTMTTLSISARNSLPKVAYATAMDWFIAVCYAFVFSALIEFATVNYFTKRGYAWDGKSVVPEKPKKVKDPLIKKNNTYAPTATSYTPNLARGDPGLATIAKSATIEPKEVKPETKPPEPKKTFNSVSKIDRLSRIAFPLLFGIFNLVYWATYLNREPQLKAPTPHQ
T2 sequence (P18507 whole entry): T1 sequence (P18507 whole entry)
T2 sequence (P28472 whole entry): T1 sequence (P28472 whole entry)

[4] = biological target: GABA-A receptor; alpha-3/beta-3/gamma-2 (Homo sapiens) (UniProt P18507+P28472+P34903); experiment: Efficacy against human recombinant GABA-Aalpha3 plus beta-3-gamma-2 receptor expressed in L(tk-) cells assessed as modulation of chloride ion by whole cell patch clamp method relative to chlorodiazepoxide; type: functional, cell-based
Rattus norvegicus = experiment: Receptor occupancy in rat, po; type: functional
[5] = Oral bioavailability in rat; type: ADME, organism-based; settings: in vivo

Ki [1] | Efficacy [2] | Ki [3] | Efficacy [4] | bioavailability [5] | Compound | Activity (Rattus norvegicus)
> 33 nM | – | – | – | – | Cn1ncnc1COc1nn2c(-c3ccccc3F)nncc2c1-c1cc(F)cc(F)c1 | –
0.77 nM | 0.18 | 0.39 nM | 0.44 | – | Cn1ncnc1COc1nn2c(-c3ccccc3F)nncc2c1-c1ccccc1 | –
23 nM | – | – | – | – | Cc1ccccc1-c1c(OCc2ncnn2C)nn2c(-c3ccccc3F)nncc12 | –
21 nM | -0.02 | – | 0.02 | – | Cn1ncnc1COc1nn2c(-c3ccccc3Cl)nncc2c1-c1ccccc1F | –
6.6 nM | 0.5 | – | 0.5 | – | Cn1ncnc1COc1nn2c(-c3ccccc3F)nncc2c1-c1cccc(CO)c1 | –
1.1 nM | 0.15 | – | 0.16 | – | Cn1ncnc1COc1nn2c(-c3cccnc3)nncc2c1-c1ccccc1F | –
1.1 nM | 0.35 | – | 0.45 | – | Cn1ncnc1COc1nn2c(-c3ccccc3F)nncc2c1-c1cccc(Cl)c1 | –
0.1 nM | 0.01 | – | 0.12 | – | Cn1ncnc1COc1nn2c(-c3ccccc3F)nncc2c1-c1cccs1 | –
1.4 nM | 0.45 | – | 0.56 | – | Cn1ncnc1COc1nn2c(-c3ccccc3F)nncc2c1-c1ccccn1 | –
0.11 nM | -0.09 | – | 0.16 | – | Cn1ncnc1COc1nn2c(-c3ccccc3F)nncc2c1-c1ccco1 | –
0.36 nM | -0.08 | – | -0.01 | – | Cn1ncnc1COc1nn2c(C3CC3)nncc2c1-c1ccccc1F | –
> 33 nM | – | – | – | – | Cn1ncnc1COc1nn2c(-c3ccccc3F)nncc2c1-c1cncnc1 | –
6.3 nM | 0.09 | – | 0.31 | – | Cn1ncnc1COc1nn2c(-c3ccccc3F)nncc2c1-c1ccc(F)cc1 | –
0.54 nM | 0.3 | – | 0.46 | – | Cn1ncnc1COc1nn2c(-c3ccccc3F)nncc2c1-c1cccc(C(F)(F)F)c1 | –
0.61 nM | 0.07 | – | -0.12 | – | Cn1ncnc1COc1nn2c(-c3ccoc3)nncc2c1-c1ccccc1F | –
2.7 nM | 0.45 | – | 0.55 | – | Cn1ncnc1COc1nn2c(-c3c(F)ccc(F)c3F)nncc2c1-c1ccccc1F | –
0.98 nM | 0.35 | – | 0.52 | – | Cn1ncnc1COc1nn2c(-c3ccccc3F)nncc2c1-c1cccnc1 | –
2.6 nM | 0.37 | – | 0.59 | – | Cn1ncnc1COc1nn2c(-c3c(F)cc(F)cc3F)nncc2c1-c1ccccc1F | –
8.7 nM | 0.32 | – | 0.32 | – | Cn1ncnc1COc1nn2c(-c3ccccc3F)nncc2c1-c1ccccc1Cl | –

Ki [1] | Efficacy [2] | Ki [3] | Efficacy [4] | bioavailability [5] | Compound | Activity (Rattus norvegicus)
0.55 nM | 0.23 | – | 0.45 | – | Cn1ncnc1COc1nn2c(-c3ccccc3F)nncc2c1-c1c(F)cccc1F | –
2 nM | 0.42 | – | 0.78 | – | Cn1ncnc1COc1nn2c(-c3ccc(F)cc3F)nncc2c1-c1ccccc1F | –
1.5 nM | 0.27 | – | 0.4 | – | Cn1ncnc1COc1nn2c(-c3ccccc3F)nncc2c1-c1cccc(F)c1F | –
1.6 nM | -0.03 | – | 0.19 | – | Cn1ncnc1COc1nn2c(-c3cccs3)nncc2c1-c1ccccc1 | –
0.1 nM | -0.02 | – | 0.21 | 32% | Cn1ncnc1COc1nn2c(-c3ccccc3F)nncc2c1-c1ccsc1 | 0.54 mg/kg
1.2 nM | 0.38 | – | 0.57 | – | Cn1ncnc1COc1nn2c(-c3cccc(F)c3)nncc2c1-c1ccccc1F | –
0.85 nM | 0.01 | – | 0.19 | – | Cn1ncnc1COc1nn2c(-c3ccco3)nncc2c1-c1ccccc1F | –
> 33 nM | – | – | – | – | Cn1ncnc1COc1nn2c(-c3ccccc3F)nncc2c1-c1ccccc1C(F)(F)F | –
1.6 nM | 0.35 | – | 0.28 | – | Cn1ncnc1COc1nn2c(-c3ccccc3F)nncc2c1-c1cccc(C#N)c1 | –
1.3 nM | 0.52 | – | 0.52 | – | Cn1ncnc1COc1nn2c(-c3cc(F)ccc3F)nncc2c1-c1ccccc1F | –
0.45 nM | 0.22 | – | 0.4 | – | Cn1ncnc1COc1nn2c(-c3ccccc3F)nncc2c1-c1ccccc1F | –
0.14 nM | 0.1 | – | 0.19 | – | Cn1ncnc1COc1nn2c(-c3ccccc3F)nncc2c1-c1ccncc1 | –
0.2 nM | 0.29 | – | 0.46 | – | Cn1ncnc1COc1nn2c(-c3ccccc3F)nncc2c1-c1cc(F)ccc1F | –
0.94 nM | 0.36 | – | 0.6 | – | Cn1ncnc1COc1nn2c(-c3ccc(F)cc3)nncc2c1-c1ccccc1F | –
14 nM | 0.42 | – | 0.38 | – | Cn1ncnc1COc1nn2c(-c3ccccc3F)nncc2c1-c1cccc(N)c1 | –
0.28 nM | 0.23 | – | 0.46 | – | Cn1ncnc1COc1nn2c(-c3ccccc3F)nncc2c1-c1cccc(F)c1 | –
0.52 nM | 0.29 | – | 0.55 | – | Cn1ncnc1COc1nn2c(-c3c(F)cccc3F)nncc2c1-c1ccccc1F | –
2.7 nM | 0.03 | – | 0.18 | – | Cn1ncnc1COc1nn2c(-[n+]3ccncc3)nncc2c1-c1ccccc1F | –
